Experimental data as given in patent US20250353891A1 (MEDIMMUNE LIMITED, priority 2022, published 2025).
Starred links: 1 amine or outer side, 2 acyl side, 3 side chain; linkers in the order of their positions; H or OH if unused. Non-standard residues stand in square brackets, D forms with d. Residues, ends and D or L forms follow the SMILES beside them. Groups on a side chain read outwards from the residue. *: point of attachment. C18 diacid = O=C(O)CCCCCCCCCCCCCCCCC(=O)*; γGlu = O=C(O)[C@H](CCC(=O)[*:2])N[*:1]; Stearoyl = CCCCCCCCCCCCCCCCCC(=O)*; Palmitoyl = CCCCCCCCCCCCCCCC(=O)*; αMeF = C[C@](N)(Cc1ccccc1)C(=O)O; PEG2 = NCCOCCOCCC(=O)O; AEEA = NCCOCCOCC(=O)O; Aib = CC(C)(N)C(=O)O

Tests used:
[1] = target: human glucagon receptor (hGCGR) (Homo sapiens, UniProt P47871); test: cAMP production (HTRF) in CHO cells expressing hGCGR; type: cell-based; parameters: expressed in transfected cells; details: Table 6, peptides modified at position 17; cAMP in CHO hGCGR cells; geometric mean; read-out: hGluc-R EC50
human glucagon receptor (hGCGR), sequence (P47871 26-477): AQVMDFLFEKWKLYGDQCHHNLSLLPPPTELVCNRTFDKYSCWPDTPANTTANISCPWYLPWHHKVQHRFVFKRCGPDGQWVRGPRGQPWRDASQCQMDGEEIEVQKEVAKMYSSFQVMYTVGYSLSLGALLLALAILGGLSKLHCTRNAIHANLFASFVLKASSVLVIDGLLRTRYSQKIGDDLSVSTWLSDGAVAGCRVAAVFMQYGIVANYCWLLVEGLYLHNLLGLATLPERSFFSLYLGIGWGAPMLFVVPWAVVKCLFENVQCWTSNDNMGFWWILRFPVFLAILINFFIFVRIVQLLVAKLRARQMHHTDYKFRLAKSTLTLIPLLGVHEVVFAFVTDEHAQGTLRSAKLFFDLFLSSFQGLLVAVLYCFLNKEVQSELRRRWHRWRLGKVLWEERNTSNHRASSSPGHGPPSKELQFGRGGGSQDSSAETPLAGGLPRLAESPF
How it was run: (§1)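 Read-out: HTRF cAMP (anti-cAMP cryptate donor, cAMP-d2 acceptor in conjugate/lysis buffer), converted to % Delta F and fitted by 4-parameter logistic for EC50. Cell densities were 1×10^5 cells/mL (hGLP-1R) or 2×10^5 cells/mL (hGCGR). Stimulation lasted 30 min at room temperature.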

[2] = target: human GLP-1 receptor (hGLP-1R) (Homo sapiens, UniProt P43220); test: cAMP production (HTRF) in CHO cells expressing hGLP-1R; type: cell-based; parameters: expressed in transfected cells; details: for EC50: Table 6, peptides modified at position 17, cAMP in CHO hGLP-1R cells, geometric mean, read-out: hGLP-1R EC50; for % Relative Potency Ratio: Table 6, % GLP-1R activity relative to GLP-1 / % GlucR activity relative to glucagon
human GLP-1 receptor (hGLP-1R), sequence (P43220 24-463): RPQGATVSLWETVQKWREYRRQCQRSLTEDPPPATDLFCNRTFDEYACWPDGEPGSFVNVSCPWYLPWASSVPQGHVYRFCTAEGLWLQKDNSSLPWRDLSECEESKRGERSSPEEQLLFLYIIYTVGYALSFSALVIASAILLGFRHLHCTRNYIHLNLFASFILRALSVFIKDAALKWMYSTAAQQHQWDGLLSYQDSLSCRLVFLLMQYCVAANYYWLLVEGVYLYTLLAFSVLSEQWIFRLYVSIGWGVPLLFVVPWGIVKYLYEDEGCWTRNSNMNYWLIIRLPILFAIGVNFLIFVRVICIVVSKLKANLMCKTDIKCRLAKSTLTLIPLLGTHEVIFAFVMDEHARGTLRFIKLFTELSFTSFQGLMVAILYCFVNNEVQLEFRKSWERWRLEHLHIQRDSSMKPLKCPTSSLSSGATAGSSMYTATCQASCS
How it was run: as §1

| Structure (SMILES) | EC50 [1] [pM] | EC50 [2] [pM] | % Relative Potency Ratio [2] |
| --- | --- | --- | --- |
| CCCCCCCCCCCCCCCC(=O)N[C@@H](CCC(=O)N[C@@H](CCC(=O)NCCOCCOCCC(=O)NCCOCCOCCC(=O)NCCCC[C@H](NC(=O)[C@H](CO)NC(=O)[C@H](CC(=O)O)NC(=O)[C@H](CC(C)C)NC(=O)C(C)(C)NC(=O)[C@H](CCCCN)NC(=O)[C@H](CO)NC(=O)[C@@H](NC(=O)[C@H](CC(=O)O)NC(=O)[C@H](CO)NC(=O)[C@@H](NC(=O)[C@](C)(Cc1ccccc1)NC(=O)[C@H](CO)NC(=O)CNC(=O)[C@H](CCC(N)=O)NC(=O)[C@H](CO)NC(=O)[C@@H](N)Cc1c[nH]cn1)[C@@H](C)O)C(C)C)C(=O)N[C@@H](CCC(N)=O)C(=O)N[C@@H](C)C(=O)N[C@@H](CCC(N)=O)C(=O)N[C@@H](CC(=O)O)C(=O)N[C@@](C)(Cc1ccccc1)C(=O)N[C@H](C(=O)N[C@@H](CCC(N)=O)C(=O)N[C@@H](Cc1c[nH]cn1)C(=O)N[C@H](C(=O)N[C@@H](C)C(=O)N[C@@H](CC(N)=O)C(N)=O)[C@@H](C)CC)C(C)C)C(=O)O)C(=O)O [Peptide 107] (H-HSQGS[αMeF]TSDVSK[Aib]LDSK([PEG2-PEG2-γGlu-γGlu-Palmitoyl])QAQD[αMeF]VQHIAN-NH2; N-terminus assumed) | 99.1 | 65.9 | 3.0 |
| CC[C@H](C)[C@H](NC(=O)C(C)(C)NC(=O)[C@H](CCC(N)=O)NC(=O)[C@@H](NC(=O)[C@](C)(Cc1ccccc1)NC(=O)[C@H](CC(=O)O)NC(=O)[C@H](CCC(N)=O)NC(=O)[C@H](C)NC(=O)[C@H](C)NC(=O)[C@H](CCCCNC(=O)COCCOCCNC(=O)COCCOCCNC(=O)CC[C@H](NC(=O)CCCCCCCCCCCCCCCCC(=O)O)C(=O)O)NC(=O)[C@H](CO)NC(=O)[C@H](CC(=O)O)NC(=O)[C@H](CC(C)C)NC(=O)C(C)(C)NC(=O)[C@H](CCCCN)NC(=O)[C@H](CO)NC(=O)[C@@H](NC(=O)[C@H](CC(=O)O)NC(=O)[C@H](CO)NC(=O)[C@@H](NC(=O)[C@](C)(Cc1ccccc1)NC(=O)[C@H](CO)NC(=O)CNC(=O)[C@H](CCC(N)=O)NC(=O)[C@H](CO)NC(=O)[C@@H](N)Cc1c[nH]cn1)[C@@H](C)O)C(C)C)C(C)C)C(=O)N[C@@H](C)C(=O)N[C@@H](CC(N)=O)C(N)=O [Peptide 108] (H-HSQGS[αMeF]TSDVSK[Aib]LDSK([AEEA-AEEA-γGlu-C18 diacid])AAQD[αMeF]VQ[Aib]IAN-NH2; N-terminus assumed) | > 27100 | 3200 |  |
| CC[C@H](C)[C@H](NC(=O)C(C)(C)NC(=O)[C@H](CCC(N)=O)NC(=O)[C@@H](NC(=O)[C@](C)(Cc1ccccc1)NC(=O)[C@H](CC(=O)O)NC(=O)[C@H](CCC(N)=O)NC(=O)[C@H](C)NC(=O)[C@H](C)NC(=O)[C@H](CCCCNC(=O)COCCOCCNC(=O)COCCOCCNC(=O)CC[C@H](NC(=O)CCCCCCCCCCCCCCCCC(=O)O)C(=O)O)NC(=O)[C@H](CO)NC(=O)[C@H](CC(=O)O)NC(=O)[C@H](CC(C)C)NC(=O)C(C)(C)NC(=O)[C@H](CCCCNC(C)=O)NC(=O)[C@H](CO)NC(=O)[C@@H](NC(=O)[C@H](CC(=O)O)NC(=O)[C@H](CO)NC(=O)[C@@H](NC(=O)[C@](C)(Cc1ccccc1)NC(=O)[C@H](CO)NC(=O)CNC(=O)[C@H](CCC(N)=O)NC(=O)[C@H](CO)NC(=O)[C@@H](N)Cc1c[nH]cn1)[C@@H](C)O)C(C)C)C(C)C)C(=O)N[C@@H](C)C(=O)N[C@@H](CC(N)=O)C(N)=O [Peptide 109] (H-HSQGS[αMeF]TSDVSK(Ac)[Aib]LDSK([AEEA-AEEA-γGlu-C18 diacid])AAQD[αMeF]VQ[Aib]IAN-NH2; N-terminus assumed) | > 26800 | 698 |  |

Continued, values first:

| EC50 [1] [pM] | EC50 [2] [pM] | % Relative Potency Ratio [2] | Structure (SMILES) |
| --- | --- | --- | --- |
| 48.5 |  | 152.9 | CCCCCCCCCCCCCCCCCC(=O)N[C@@H](CCC(=O)N[C@@H](CCC(=O)NCCOCCOCCC(=O)NCCOCCOCCC(=O)NCCCC[C@H](NC(=O)[C@H](CO)NC(=O)[C@H](CC(=O)O)NC(=O)[C@H](CC(C)C)NC(=O)C(C)(C)NC(=O)[C@H](CCCCNC(C)=O)NC(=O)[C@H](CO)NC(=O)[C@@H](NC(=O)[C@H](CC(=O)O)NC(=O)[C@H](CO)NC(=O)[C@@H](NC(=O)[C@](C)(Cc1ccccc1)NC(=O)[C@H](CO)NC(=O)CNC(=O)[C@H](CCC(N)=O)NC(=O)[C@H](CO)NC(=O)[C@@H](N)Cc1c[nH]cn1)[C@@H](C)O)C(C)C)C(=O)N[C@@H](C)C(=O)N[C@@H](C)C(=O)N[C@@H](CCC(N)=O)C(=O)N[C@@H](CC(=O)O)C(=O)N[C@@](C)(Cc1ccccc1)C(=O)N[C@H](C(=O)N[C@@H](CCC(N)=O)C(=O)NC(C)(C)C(=O)N[C@H](C(=O)N[C@@H](C)C(=O)N[C@@H](CC(N)=O)C(N)=O)[C@@H](C)CC)C(C)C)C(=O)O)C(=O)O [Peptide 110] (H-HSQGS[αMeF]TSDVSK(Ac)[Aib]LDSK([PEG2-PEG2-γGlu-γGlu-Stearoyl])AAQD[αMeF]VQ[Aib]IAN-NH2; N-terminus assumed) |
| 2.09 | 1.92 | 2.2 | CCCCCCCCCCCCCCCC(=O)N[C@@H](CCC(=O)N[C@@H](CCC(=O)NCCOCCOCCC(=O)NCCOCCOCCC(=O)NCCCC[C@H](NC(=O)[C@H](CO)NC(=O)[C@H](CC(=O)O)NC(=O)[C@H](CC(C)C)NC(=O)[C@@H](NC(=O)[C@H](CCCCN)NC(=O)[C@H](CO)NC(=O)[C@@H](NC(=O)[C@H](CC(=O)O)NC(=O)[C@H](CO)NC(=O)[C@@H](NC(=O)[C@](C)(Cc1ccccc1)NC(=O)[C@H](CO)NC(=O)CNC(=O)[C@H](CCC(N)=O)NC(=O)[C@H](CO)NC(=O)[C@@H](N)Cc1c[nH]cn1)[C@@H](C)O)C(C)C)[C@@H](C)CC)C(=O)N[C@@H](C)C(=O)N[C@@H](C)C(=O)N[C@@H](CCC(N)=O)C(=O)N[C@@H](CC(=O)O)C(=O)N[C@@](C)(Cc1ccccc1)C(=O)N[C@H](C(=O)N[C@@H](CCC(N)=O)C(=O)NC(C)(C)C(=O)N[C@H](C(=O)N[C@@H](C)C(=O)N[C@@H](CC(N)=O)C(N)=O)[C@@H](C)CC)C(C)C)C(=O)O)C(=O)O [Peptide 111] (H-HSQGS[αMeF]TSDVSKILDSK([PEG2-PEG2-γGlu-γGlu-Palmitoyl])AAQD[αMeF]VQ[Aib]IAN-NH2) |
| 2.69 | 3.36 | 1.6 | CCCCCCCCCCCCCCCC(=O)N[C@@H](CCC(=O)N[C@@H](CCC(=O)NCCOCCOCCC(=O)NCCOCCOCCC(=O)NCCCC[C@H](NC(=O)[C@H](CO)NC(=O)[C@H](CC(=O)O)NC(=O)[C@H](CC(C)C)NC(=O)[C@@H](NC(=O)[C@H](CCCCN)NC(=O)[C@H](CO)NC(=O)[C@@H](NC(=O)[C@H](CC(=O)O)NC(=O)[C@H](CO)NC(=O)[C@@H](NC(=O)[C@](C)(Cc1ccccc1)NC(=O)[C@H](CO)NC(=O)CNC(=O)[C@H](CCC(N)=O)NC(=O)[C@H](CO)NC(=O)[C@@H](N)Cc1c[nH]cn1)[C@@H](C)O)C(C)C)[C@@H](C)CC)C(=O)N[C@@H](C)C(=O)N[C@@H](C)C(=O)N[C@@H](CCC(N)=O)C(=O)N[C@@H](CC(=O)O)C(=O)N[C@@](C)(Cc1ccccc1)C(=O)N[C@H](C(=O)N[C@@H](CCC(N)=O)C(=O)N[C@H](C(=O)N[C@H](C(=O)N[C@@H](C)C(=O)N[C@@H](CC(N)=O)C(N)=O)[C@@H](C)CC)[C@@H](C)CC)C(C)C)C(=O)O)C(=O)O [Peptide 112] (H-HSQGS[αMeF]TSDVSKILDSK([PEG2-PEG2-γGlu-γGlu-Palmitoyl])AAQD[αMeF]VQIIAN-NH2) |
| 4.6 | 1.61 | 5.6 | CCCCCCCCCCCCCCCC(=O)N[C@@H](CCC(=O)N[C@@H](CCC(=O)NCCOCCOCCC(=O)NCCOCCOCCC(=O)NCCCC[C@H](NC(=O)[C@H](CO)NC(=O)[C@H](CC(=O)O)NC(=O)[C@H](CC(C)C)NC(=O)[C@@H](NC(=O)[C@H](CCCCN)NC(=O)[C@H](CO)NC(=O)[C@@H](NC(=O)[C@H](CC(=O)O)NC(=O)[C@H](CO)NC(=O)[C@@H](NC(=O)[C@](C)(Cc1ccccc1)NC(=O)[C@H](CO)NC(=O)CNC(=O)[C@H](CCC(N)=O)NC(=O)[C@H](CO)NC(=O)[C@@H](N)Cc1c[nH]cn1)[C@@H](C)O)C(C)C)[C@@H](C)CC)C(=O)N[C@@H](C)C(=O)N[C@@H](C)C(=O)N[C@@H](CCC(N)=O)C(=O)N[C@@H](CC(=O)O)C(=O)N[C@@](C)(Cc1ccccc1)C(=O)N[C@H](C(=O)N[C@@H](CCC(N)=O)C(=O)N[C@H](C(=O)N[C@H](C(=O)N[C@@H](C)C(=O)NCC(N)=O)[C@@H](C)CC)[C@@H](C)CC)C(C)C)C(=O)O)C(=O)O [Peptide 113] (H-HSQGS[αMeF]TSDVSKILDSK([PEG2-PEG2-γGlu-γGlu-Palmitoyl])AAQD[αMeF]VQIIAG-NH2; N-terminus assumed) |
| 2.65 | 3.65 | 1.4 | CCCCCCCCCCCCCCCC(=O)N[C@@H](CCC(=O)N[C@@H](CCC(=O)NCCOCCOCCC(=O)NCCOCCOCCC(=O)NCCCC[C@H](NC(=O)[C@H](CO)NC(=O)[C@H](CC(=O)O)NC(=O)[C@H](CC(C)C)NC(=O)[C@@H](NC(=O)[C@H](CCCCN)NC(=O)[C@H](CO)NC(=O)[C@@H](NC(=O)[C@H](CC(=O)O)NC(=O)[C@H](CO)NC(=O)[C@@H](NC(=O)[C@](C)(Cc1ccccc1)NC(=O)[C@H](CO)NC(=O)CNC(=O)[C@H](CCC(N)=O)NC(=O)[C@H](CO)NC(=O)[C@@H](N)Cc1c[nH]cn1)[C@@H](C)O)C(C)C)[C@@H](C)CC)C(=O)N[C@@H](C)C(=O)N[C@@H](C)C(=O)N[C@@H](CCC(N)=O)C(=O)N[C@@H](CC(=O)O)C(=O)N[C@@](C)(Cc1ccccc1)C(=O)N[C@H](C(=O)N[C@@H](CCC(=O)O)C(=O)N[C@H](C(=O)N[C@H](C(=O)N[C@@H](C)C(=O)N[C@@H](CC(N)=O)C(N)=O)[C@@H](C)CC)[C@@H](C)CC)C(C)C)C(=O)O)C(=O)O [Peptide 114] (H-HSQGS[αMeF]TSDVSKILDSK([PEG2-PEG2-γGlu-γGlu-Palmitoyl])AAQD[αMeF]VEIIAN-NH2; N-terminus assumed) |
